The nature of data set [1]: Plasma and tissue pharmacokinetic properties in mice, rats, and dogs (general statements). Format: in vivo. The conditions noted are these: in words. The protocol: AUC was calculated using the Linear/Log rule.
Selective PARP inhibitors were tested for basic plasma and tissue pharmacokinetic properties in mice, rats, and dogs. After assessment, this family compounds appear to be orally bioavailable in all species and to penetrate brain and tumor tissue.

For the next data set, the system named is B16 melanoma. Nature of the data set: Mouse intracranial model of B16 melanoma, combination with TMZ. Format: in vivo, mice. The following applies: for survival time: compound 13 10 mg/kg oral + TMZ vs TMZ as single agent (P<0.0001).
The test system of the next data set is SJGBM2 glioma. The following applies: for efficacy (survival): compound 13 10 mg/kg po + TMZ.
Data set [2] concerns Human HNSCC cell line JHU012. The data set can be described thus: Enhancement of radiation treatment of head and neck squamous cell carcinoma xenograft. Format: in vivo, BALB/c nude mice. As to the method:
Human HNSCC cell line JHU012 was used, having been previously genetically characterized and originally derived at the Johns Hopkins University Head and Neck Laboratories from human tumor explants. The cell line was maintained in RPMI 1640 medium with 10% fetal bovine serum and 1% penicillin/streptomycin at 5% CO2 in 37° C. humidified incubators. Experiments were performed on 6-week-old male BALB/c nude mice nu/nu. […] Mice were anesthetized by intraperitoneal injection of […] tribromoethanol. Tumors were established at the right flank by subcutaneous injection of 1×10^7 cells. Fourteen days post cell injection tumors were surgically exposed and measured in 3 dimensions using calipers.

A further data set has as its system BRCA-1 null cells. Nature of the data set: Tumor growth in mice bearing BRCA-1 deficient tumors. Type of data set: in vivo, nu/nu mice. The protocol:
1×10^6 BRCA-1 null cells were injected subcutaneously on the right flank of female nu/nu mice (6-7 weeks old; Harlan Sprague Dawley, Indianapolis Ind.). After approximately 10-14 days, the tumors were approximately 100 mm^3. Mice were sorted into groups so that mean tumor size was similar among groups with minimum standard deviations. Dosing started the day after sorting and tumor volume was monitored three times per week. Tumors were measured in two diameters and volume calculated by […]. Mice were removed from the study when tumors reached 1500 mm^3. “Time to Endpoint” or TTE (the number of days it takes for the tumor to reach 1500 mm^3 or greater) is the endpoint of the study. […] The compound was dosed orally, daily for 28 days from start of the study—day 1. A positive control was utilized, using a well known PARP inhibitor shown to be effective as a stand alone agent in the BRCA models (Bryant et al). The positive control agent was dosed at 25 mg/kg IP qdx5 from start of experiment.

A short description of data set [3]: Bioavailability and brain/plasma levels in mice. The following applies: 30 mg/kg; for Kp / bioavailability: mouse; for Kp: brain; for bioavailability: plasma, po.
Data set [4] is described as follows: Bioavailability and brain/plasma levels in rats. The following applies: 30 mg/kg; for Kp / bioavailability: rat; for Kp: brain; for bioavailability: plasma, po.
The nature of data set [5]: in vivo. The following applies: mouse, po, 30 mg/kg.
Data set [6] can be described thus: in vivo. The conditions noted are these: rat, po, 30 mg/kg.

“Also recorded” adds a separate entry of the source. Read-outs that look alike come from different tables or passages of the source.

For the compound `O=c1[nH]nc2c3c(cccc13)N=C(CN1CCOCC1)N2` [prior art compound], in [1], the oral bioavailability entry is on record as “good bioavailability” and the “ratio of brain to plasma levels” value is reported as “very low”.

On to `O=c1[nH]nc2c3c(cccc13)N=C(CN1CC=C(c3ccccc3)CC1)N2` [Compound 13, 8-(4-phenyl-3,6-dihydro-2H-pyridin-1-ylmethyl)-2,9-dihydro-1,2,7,9-tetraaza-phenalen-3-one], for which the survival time result in the data set with B16 melanoma was “enhance survival”; in the data set with B16 melanoma (listed as compound 13) it was “significantly increased the survival time”. Besides, the “MTS (median survival time)” value with SJGBM2 glioma (compound 13 10 mg/kg po 15 min pre-TMZ, combination with TMZ (P=0.002)) is 25 days. Moreover, the results for the “efficacy (survival)” value with SJGBM2 glioma and with SJGBM2 glioma (listed as compound 13) were “enhanced survival” and “efficacious”, respectively.

As to `O=c1[nH]nc2c3c(cccc13)N=C(CN1Cc3ccccc3C1)N2` [Compound 37, 8-(1,3-dihydro-isoindol-2-ylmethyl)-2,9-dihydro-1,2,7,9-tetraaza-phenalen-3-one], the mean survival time result in the data set with B16 melanoma (Compound 37 12.5 mg/kg oral + TMZ vs TMZ as single agent) is reported as “significantly higher; also recorded: enhance survival”. In addition, the tumor growth inhibition result in data set [2] (100 mg/kg Compound 37 PO qdx17 alone compared to vehicle controls) and in data set [2] (Compound 37 30 mg/kg PO + radiation compared to radiation alone) was “no significant effect on tumor growth inhibition” each time. Further, the “inhibition of tumor growth” value in [2] (Compound 37 oral (100 mg/kg) + radiation vs control) was “significant inhibition of tumor growth”. Moreover, in [2] (Group 5: 100 mg/kg Compound 37 PO + Radiation (2 gy/day for 2 days), day 31, control 585.9 mm^3, p<0.01), the “tumor volume at end of experiment” value is given as 209.04 mm^3. Further, the tumor growth entry with BRCA-1 null cells (100 mg/kg Compound 37 orally, daily for 28 days, vs vehicle controls) is “effective in significantly retarding tumor growth; also recorded: inhibition of growth”. For the same compound, the “time until tumors start to grow after dosing stopped at day 28” value with BRCA-1 null cells (Compound 37 100 mg/kg po daily for 28 days) lay in the range of 10 to 14 days. The “tumor growth delay compared to positive control” value in the data set on BRCA-1 null cells (Compound 37 100 mg/kg po vs positive control PARP inhibitor 25 mg/kg IP qdx5 (p<0.05)) is recorded as “delayed tumor growth compared to the positive control”. The animal survival entry in the data set on SJGBM2 glioma (10 mg/kg Compound 37 + TMZ five days followed by Compound 37 100 mg/kg for 14 days vs 10 mg/kg Compound 37 + TMZ five days) is “significantly increased animal survival”.

For orientation: Kp means tissue or fluid exposure divided by exposure in the circulation. For orientation: bioavailability means dose-corrected exposure relative to a reference, in per cent. A low value points to little systemic uptake. Consider `O=c1[nH]nc2c3c(cccc13)N=C(CN1Cc3ccccc3C1)N2` [drawing 99], for which, in [3], the Kp turned out to be 0.26 and the bioavailability was 81%. In addition, in [4], the partition ratio (Kp) is 0.36 and the bioavailability stood at 45%.

Turning to `O=c1[nH]nc2c3c(cccc13)N=C(CN1CCN(c3ccccc3)CC1)N2`, the Kp is 0.49 in [3] and 0.4 in [4]. In addition, the bioavailability is 49% in data set [3] and 58% in data set [4].

For `Cn1nnc2c(C(N)=O)ncn2c1=O` [TMZ, temozolomide, reference compound], the survival times entry with B16 melanoma (TMZ treated vs control group) was “No significant differences in survival times”. Moreover, the “MTS (median survival time)” value in the data set with SJGBM2 glioma (TMZ alone) amounted to 22.5 days. In addition, the “response of SJGBM2 to TMZ” value in the data set on SJGBM2 glioma (TMZ as single agent) is “ineffective”.

In [3], `O=c1[nH]nc2c3c(cccc13)N=C(CN1CCOCC1)N2` [drawing 95] gave a concentration ratio (Kp) below 0.05 and a bioavailability of 77%. In data set [4], this compound came in with a Kp below 0.05 and a bioavailability of 77%.

For the compound `O=c1[nH]nc2c3c(cccc13)N=C(CN1CC=C(c3ccccc3)CC1)N2` [drawing 97], the bioavailability in the data set “in vivo [5]” stood at 61%; in the data set “in vivo [6]”, 51%. Besides, the concentration ratio (Kp) in [3] is 0.46; in data set [4] it was 0.42.

On to `O=c1[nH]nc2c3c(cccc13)N=C(CN1CCC(c3ccccc3)CC1)N2`, for which the “B/P in mice (ratio of brain to plasma levels)” value in data set [3] (mice) is on record as 30-64%. In addition, the bioavailability in data set [3] worked out at 75%; in [4] it was 50%. In addition, the “B/P in rats (ratio of brain to plasma levels)” value in data set [4] (rats) is 71-117%.

The values are drawn from patent US8894989B2, “PARP inhibitor compounds, compositions and methods of use” (Eisai Inc., priority 2007, dated 2014).
